Reference: patent EP2818472A1, “Imidazo[4,5-c]pyridine and pyrrolo[3,2-c]pyridine compounds as G-protein-coupled receptor kinase 5 (GRK5) modulators” (Max-Planck-Gesellschaft zur Förderung der Wissenschaften …, priority 2013, dated 2014)

tested on: beta-TC6 cells; experiment: Insulin HTRF assay (relative activity Ar) in beta-TC6 cells; assay type: cell-based, mouse; details: Mus musculus, Beta-TC6, 4 h, insulin HTRF, supernatant of beta-TC6 cells, incubation with test compound at 37°C for 2, 3, 4h; read-out: Ar (relative activity)
How it was run: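 beta-TC6 cells (15k/well, seeded 24 or 48 h) washed, then exposed to compound in induction buffer (0.5% DMSO final) for 2, 3 or 4 h at 37°C.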

| SMILES | Emax [%] |
| --- | --- |
| CNc1nc2cnc(-c3cccs3)cc2n1-c1cccc(F)c1 [Compound 687, 1-(3-fluorophenyl)-N-methyl-6-(2-thienyl)imidazo[4,5-c]pyridin-2-amine] | 50 to 100 |
| CNc1nc2cnc(Nc3cccc(NC(C)=O)c3)cc2n1-c1cccc(F)c1 [Compound 688, N-[3-[[1-(3-fluorophenyl)-2-(methylamino)imidazo[4,5-c]pyridin-6-yl]amino]phenyl]acetamide] | 50 to 100 |
| CNc1nc2cnc(Nc3cccc(C(C)=O)c3)cc2n1-c1cccc(F)c1 [Compound 689, 1-[3-[[1-(3-fluorophenyl)-2-(methylamino)imidazo[4,5-c]pyridin-6-yl]amino]phenyl]ethanone] | 50 to 100 |
| COc1cc(-n2cnc3cnc(Nc4cccc(C(F)(F)F)c4)cc32)cc(OC)c1OC [Compound 690, N-[3-(trifluoromethyl)phenyl]-1-(3,4,5-trimethoxyphenyl)imidazo[4,5-c]pyridin-6-amine] | > 100 |
| CN(C)c1cccc(Nc2cc3c(cn2)ncn3-c2ccccc2)c1 [Compound 691, N1,N1-dimethyl-N3-(1-phenylimidazo[4,5-c]pyridin-6-yl)benzene-1,3-diamine] | 30 to 50 |
| CC(=O)Nc1ccc(Nc2cc3c(cn2)ncn3Cc2ccco2)cc1 [Compound 692, N-[4-[[1-(2-furylmethyl)imidazo[4,5-c]pyridin-6-yl]amino]phenyl]acetamide] | 30 to 50 |
| COc1ccc(Nc2cc3c(cn2)ncn3Cc2ccco2)cc1 [Compound 693, 1-(2-furylmethyl)-N-(4-methoxyphenyl)imidazo[4,5-c]pyridin-6-amine] | 50 to 100 |
| CC(=O)Nc1ccc(Nc2cc3c(cn2)ncn3Cc2ccccc2)cc1 [Compound 694, N-[4-[(1-benzylimidazo[4,5-c]pyridin-6-yl)amino]phenyl]acetamide] | 50 to 100 |
| c1ccc(Cn2cnc3cnc(Nc4ccc5c(c4)OCO5)cc32)cc1 [Compound 695, N-(1,3-benzodioxol-5-yl)-1-benzyl-imidazo[4,5-c]pyridin-6-amine] | 50 to 100 |
| CS(=O)(=O)c1ccc(Nc2cc3c(cn2)ncn3CC2CC2)cc1 [Compound 696, 1-(cyclopropylmethyl)-N-(4-methylsulfonylphenyl)imidazo[4,5-c]pyridin-6-amine] | 30 to 50 |
| COc1cc(Nc2cc3c(cn2)nc(C)n3C)cc(OC)c1OC [Compound 697, 1,2-dimethyl-N-(3,4,5-trimethoxyphenyl)imidazo[4,5-c]pyridin-6-amine] | 50 to 100 |
| CC(=O)c1cccc(Nc2cc3c(cn2)nc(C)n3C)c1 [Compound 698, 1-[3-[(1,2-dimethylimidazo[4,5-c]pyridin-6-yl)amino]phenyl]ethanone] | 30 to 50 |
| COc1cc(Nc2cc3c(cn2)nc(Cc2ccccc2)n3C)cc(OC)c1OC [Compound 699, 2-benzyl-1-methyl-N-(3,4,5-trimethoxyphenyl)imidazo[4,5-c]pyridin-6-amine] | 50 to 100 |
| CC(=O)Nc1ccc(Nc2cc3c(cn2)nc(Cc2ccccc2)n3C)cc1 [Compound 700, N-[4-[(2-benzyl-1-methyl-imidazo[4,5-c]pyridin-6-yl)amino]phenyl]acetamide] | 50 to 100 |
| COc1cc(Nc2cc3c(cn2)nc(-c2ccccc2)n3C)cc(OC)c1OC [Compound 701, 1-methyl-2-phenyl-N-(3,4,5-trimethoxyphenyl)imidazo[4,5-c]pyridin-6-amine] | 50 to 100 |
| CC(=O)Nc1ccc(Nc2cc3c(cn2)nc(-c2ccccc2)n3C)cc1 [Compound 702, N-[4-[(1-methyl-2-phenyl-imidazo[4,5-c]pyridin-6-yl)amino]phenyl]acetamide] | 50 to 100 |
| COc1ccc(Nc2cc3c(cn2)nc(-c2ccccc2)n3C)c(OC)c1 [Compound 703, N-(2,4-dimethoxyphenyl)-1-methyl-2-phenyl-imidazo[4,5-c]pyridin-6-amine] | 30 to 50 |
| COc1ccc(Nc2cc3c(cn2)nc(-c2ccccc2)n3C)cn1 [Compound 704, N-(6-methoxy-3-pyridyl)-1-methyl-2-phenyl-imidazo[4,5-c]pyridin-6-amine] | 30 to 50 |
